# Test results published in US9072734B2, “Quaternary ammonium salt compounds” (Teijin Pharma Limited, priority 2009, dated 2015).
# Where a name gives a salt, the structure may show the parent alone.
# Molecular target: T1, human β2 adrenergic receptor (Homo sapiens, UniProt P07550)
# T1 construct: expressed in transfected cells; host or cells: CHO-K1
# Experiment: Whole-cell cAMP Flashplate assay using CHO-K1 cells stably expressing human β2 adrenergic receptor
# Format: cell-based
# Settings: cAMP production
# Experimental: The β2 adrenergic receptor, which couples to Gs proteins, activates adenylate cyclase upon agonist binding to the receptor. As a result, cAMP is produced in cells. The activation ability of the β2 adrenergic receptor can be measured by measuring the amount of the cAMP with cAMP-Screen System (Applied Biosystems).
# CHO-K1 cells expressing the human β2 adrenergic receptor suspended in Ham's F-12 media containing 10% FBS were seeded into 96-well plates at a volume of 100 μL/well. Next day, they were washed with 200 μL PBS(−), to which 80 μL of 0.5 mM IBMX solution (Ham's F-12 media containing 0.05% BSA) was then added, followed by incubation for 20 minutes at 37° C. in the presence of 5% carbon dioxide. 20 μL of 9 concentrations of test compound solutions (0.5 mM IBMX solution containing 1% DMSO) prepared at concentrations in a range of 0.01-1000 nM with 2-fold serial dilution) were added, followed by incubation for 20 minutes at 37° C. in the presence of 5% carbon dioxide. Then, 100 μL of Assay/Lysis Buffer (a reagent that comes with cAMP Screen System) was added. The cells were lysed by pipetting, further incubated for 30 minutes at 37° C., and then frozen at −80° C. After several days, samples, thawed at room temperature, were treated according to the protocol of cAMP Screen System, and then chemiluminescence was measured by EnVision (PerkinElmer, Inc.). The amount of cAMP was calculated from the standard curve for the standard attached to cAMP Screen System.
# The concentrations of a test compound at which 50% of its maximal effect is reached (EC50 values) were analyzed by a four-parameter logistic model using XLfit4 (IDBS, Ltd.) for the amounts of cAMP production at different concentrations of the test compounds.
# T1 sequence (P07550 whole entry): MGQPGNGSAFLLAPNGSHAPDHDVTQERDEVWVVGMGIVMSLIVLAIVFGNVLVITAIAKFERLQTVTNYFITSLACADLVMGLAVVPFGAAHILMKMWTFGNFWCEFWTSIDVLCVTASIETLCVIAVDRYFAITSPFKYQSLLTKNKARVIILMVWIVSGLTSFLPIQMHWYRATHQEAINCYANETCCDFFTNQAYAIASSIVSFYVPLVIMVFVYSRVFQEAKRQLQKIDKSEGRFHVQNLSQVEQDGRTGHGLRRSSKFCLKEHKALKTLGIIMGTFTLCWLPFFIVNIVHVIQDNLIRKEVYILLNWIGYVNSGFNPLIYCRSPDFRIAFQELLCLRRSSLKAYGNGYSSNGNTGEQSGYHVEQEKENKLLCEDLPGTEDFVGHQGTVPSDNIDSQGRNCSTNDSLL
row,Structure (SMILES),EC50 [nM]
1,"C[N+]1(C)CCC(OC(=O)Nc2cc(CCC(=O)NCCCCCNC[C@H](O)c3ccc(O)c4[nH]c(=O)ccc34)ccc2-c2ccccc2)CC1 [Example 74, 4-({[5-(2-{[5-{[(2R)-2-hydroxy-2-(8-hydroxy-2-oxo-1,2-dihydroquinolin-5-yl)ethyl]amino}pentyl]carbamoyl}ethyl)-2-phenylphenyl]carbamoyl}oxy)-1,1-dimethylpiperidin-1-ium trifluoroacetate]",4.5
2,"C[N+]1(C)CCC(OC(=O)Nc2cc(OCC(=O)Nc3ccc(CNC[C@H](O)c4ccc(O)c5[nH]c(=O)ccc45)cc3)ccc2-c2ccccc2)CC1 [Example 64, 4-({[5-(2-{[4-({[(2R)-2-hydroxy-2-(8-hydroxy-2-oxo-1,2-dihydroquinolin-5-yl)ethyl]amino}methyl)phenyl]carbamoyl}methoxy)-2-phenylphenyl]carbamoyl}oxy)-1,1-dimethylpiperidin-1-ium trifluoroacetate]",38
3,"C[N+]1(C)CCC(OC(=O)Nc2cc(CCC(=O)NCc3ccc(CNC[C@H](O)c4ccc(O)c5[nH]c(=O)ccc45)cc3)ccc2-c2ccccc2)CC1 [Example 65, 4-[({5-[2-({[4-({[(2R)-2-hydroxy-2-(8-hydroxy-2-oxo-1,2-dihydroquinolin-5-yl)ethyl]amino}methyl)phenyl]methyl}carbamoyl)ethyl]-2-phenylphenyl}carbamoyl)oxy]-1,1-dimethylpiperidin-1-ium trifluoroacetate]",14.5
4,"C[N+]1(C)CCC(OC(=O)Nc2cc(OCCOc3ccc(CCNC[C@H](O)c4ccc(O)c5[nH]c(=O)ccc45)cc3)ccc2-c2ccccc2)CC1 [Example 79, 4-{[(5-{2-[4-(2-{[(2R)-2-hydroxy-2-(8-hydroxy-2-oxo-1,2-dihydroquinolin-5-yl)ethyl]amino}ethyl)phenoxy]ethoxy}-2-phenylphenyl)carbamoyl]oxy}-1,1-dimethylpiperidin-1-ium trifluoro acetate]",5.8
5,"C[N+]1(C)CCC(OC(=O)Nc2cc(CCCC(=O)NCc3ccc(CNC[C@H](O)c4ccc(O)c5[nH]c(=O)ccc45)cc3)ccc2-c2ccccc2)CC1 [Example 66, 4-[({5-[3-({[4-({[(2R)-2-hydroxy-2-(8-hydroxy-2-oxo-1,2-dihydroquinolin-5-yl)ethyl]amino}methyl)phenyl]methyl}carbamoyl)propyl]-2-phenylphenyl}carbamoyl)oxy]-1,1-dimethylpiperidin-1-ium trifluoroacetate]",12.6
6,"C[N+]1(C)[C@@H]2CC(OC(=O)Nc3cc(CCC(=O)Nc4ccc5cc(CNC[C@H](O)c6ccc(O)c7[nH]c(=O)ccc67)ccc5c4)ccc3-c3ccccc3)C[C@H]1[C@@H]1O[C@@H]12 (stereo partly drawn) [Example 40, (1R,2R,4S,5S,7S)-7-({[5-(2-{[6-({[(2R)-2-hydroxy-2-(8-hydroxy-2-oxo-1,2-dihydroquinolin-5-yl)ethyl]amino}methyl)naphthalen-2-yl]carbamoyl}ethyl)-2-phenylphenyl]carbamoyl}oxy)-9,9-dimethyl-3-oxa-9-azatricyclo[3.3.1.0^2,4]nonan-9-ium trifluoroacetate]",3.4
7,"C[N+]1(CCOc2ccccc2)CCC(OC(=O)Nc2cc(CCC(=O)Nc3ccc(CNC[C@H](O)c4ccc(O)c5[nH]c(=O)ccc45)cc3)ccc2-c2ccccc2)CC1 (stereo partly drawn) [Example 57, 4-({[5-(2-{[4-({[(2R)-2-hydroxy-2-(8-hydroxy-2-oxo-1,2-dihydroquinolin-5-yl)ethyl]amino}methyl)phenyl]carbamoyl}ethyl)-2-phenylphenyl]carbamoyl}oxy)-1-methyl-1-(2-phenoxyethyl)piperidin-1-ium trifluoro acetate]",2.7

# Further lines, results first:
row,EC50 [nM],Structure (SMILES)
1,0.4,"C[N+]1(C)CCC(OC(=O)Nc2cc(/C=C/C(=O)Nc3ccc(CNC[C@H](O)c4ccc(O)c5[nH]c(=O)ccc45)cc3)ccc2-c2ccccc2)CC1 [Example 67, 4-[({5-[(1E)-2-{[4-({[(2R)-2-hydroxy-2-(8-hydroxy-2-oxo-1,2-dihydroquinolin-5-yl)ethyl]amino}methyl)phenyl]carbamoyl}-1-ethen-1-yl]-2-phenylphenyl}carbamoyl)oxy]-1,1-dimethylpiperidin-1-ium trifluoroacetate]"
2,2.7,"C[N+]1(C)[C@@H]2CC(OC(=O)Nc3cc(CCCC(=O)Nc4ccc5cc(CNC[C@H](O)c6ccc(O)c7[nH]c(=O)ccc67)ccc5c4)ccc3-c3ccccc3)C[C@H]1[C@@H]1O[C@@H]12 (stereo partly drawn) [Example 35, (1R,2R,4S,5S,7S)-7-({[5-(3-{[6-({[(2R)-2-hydroxy-2-(8-hydroxy-2-oxo-1,2-dihydroquinolin-5-yl)ethyl]amino}methyl)naphthalen-2-yl]carbamoyl}propyl)-2-phenylphenyl]carbamoyl}oxy)-9,9-dimethyl-3-oxa-9-azatricyclo[3.3.1.0^2,4]nonan-9-ium trifluoroacetate]"
3,0.5,"C[N+]1(C)CCC(OC(=O)Nc2cc(C(=O)OCCCCCCCNCC(O)c3ccc(O)c4[nH]c(=O)ccc34)ccc2-c2ccccc2)CC1 [Example 75, 4-{[5-({[(7-{[(2R)-2-hydroxy-2-(8-hydroxy-2-oxo-1,2-dihydroquinolin-5-yl)ethyl]amino}heptyl)oxy]carbonyl}-2-phenylphenyl)carbamoyl]oxy}-1,1-dimethylpiperidin-1-ium trifluoro acetate]"
4,0.2,"C[N+]1(C)CCC(OC(=O)Nc2cc(OCCCCCCNC[C@H](O)c3ccc(O)c4[nH]c(=O)ccc34)ccc2-c2ccccc2)CC1 [Example 59, 4-[({5-[(6-{[(2R)-2-hydroxy-2-(8-hydroxy-2-oxo-1,2-dihydroquinolin-5-yl)ethyl]amino}hexyl)oxy]-2-phenylphenyl}carbamoyl)oxy]-1,1-dimethylpiperidin-1-ium trifluoroacetate]"
5,1.2,"C[N+]1(C)CCC(OC(=O)Nc2cc(OCCCCCCCCCNC[C@H](O)c3ccc(O)c4[nH]c(=O)ccc34)ccc2-c2ccccc2)CC1 [Example 60, 4-[({5-[(9-{[(2R)-2-hydroxy-2-(8-hydroxy-2-oxo-1,2-dihydroquinolin-5-yl)ethyl]amino}nonyl)oxy]-2-phenylphenyl}carbamoyl)oxy]-1,1-dimethylpiperidin-1-ium trifluoroacetate]"
